From PubChem BioAssay (NCI)
Several values for one entry are separate records, joined by “and”; a condition that tells them apart may be missing. Equal values may be shown once.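 Cultured in 96-well plates, cells were exposed to test compound for 48 hours across five concentrations. GI50 marks 50% less growth. TGI marks complete inhibition of growth.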

Tests used:
Assay in all cases: growth of human tumour cells (NCI), 48 h
A549 NSCLC = test system: A549 NSCLC
RPMI-8226 leukemia = test system: RPMI-8226 leukemia
SK-OV-3 ovarian = test system: SK-OV-3 ovarian
UACC-257 melanoma = test system: UACC-257 melanoma
K-562 leukemia = test system: K-562 leukemia
MALME-3M melanoma = test system: MALME-3M melanoma
HT29 colon = test system: HT29 colon
SNB-75 CNS = test system: SNB-75 CNS
HCT-15 colon = test system: HCT-15 colon
SNB-19 CNS = test system: SNB-19 CNS

Row | SMILES | GI50 (A549 NSCLC) | TGI (A549 NSCLC) [µM] | GI50 (RPMI-8226 leukemia) | TGI (RPMI-8226 leukemia) [µM] | GI50 (SK-OV-3 ovarian) [µM] | TGI (SK-OV-3 ovarian) [µM] | GI50 (UACC-257 melanoma) | TGI (UACC-257 melanoma) [µM] | GI50 (K-562 leukemia) [µM] | TGI (K-562 leukemia) [µM] | GI50 (MALME-3M melanoma) | TGI (MALME-3M melanoma) | GI50 (HT29 colon) | TGI (HT29 colon) [µM] | GI50 (SNB-75 CNS) [µM] | TGI (SNB-75 CNS) [µM] | GI50 (HCT-15 colon) | TGI (HCT-15 colon) [µM] | GI50 (SNB-19 CNS) [µM] | TGI (SNB-19 CNS) [µM]
1 | COc1cccc(C2SC(C)C(=O)N2NC(=O)C(O)c2ccccc2)c1 (stereo not drawn) | > 100 µM | > 100 | > 100 µM | > 100 | > 100 | > 100 | > 100 µM | > 100 | > 100 | > 100 | > 100 µM | > 100 µM | > 100 µM | > 100 | > 100 | > 100 | > 100 µM | > 100 | > 100 | > 100
2 | COc1ccc(Cc2ccc3[nH]c(=O)cc(C)c3c2)cc1S(=O)(=O)O |  | > 100 |  | > 100 |  | > 100 |  | > 100 |  | > 100 |  | > 100 µM |  | > 100 |  | > 100 |  | > 100 |  | > 100
3 | O=[N+]([O-])c1cc(I)cc(/C=N/NS(=O)(=O)c2ccc(F)cc2)c1O |  | > 100 |  | 54.8 |  | 70.2 |  | 62.3 |  | 52.7 |  | 52.4 µM |  | 46.5 |  | 66.3 |  | 64.7 |  | > 100
4 | COc1ccc2c(c1)/C(=C\c1c(-c3ccccc3)nc3sccn13)C(=O)N2 | 7.2 µM | > 100 | 1.57 µM | 5.51 |  | > 65.8 | 28.7 µM | 89.3 | 3.98 | > 41.9 | 39.7 µM | 97.1 µM | 8.17 µM | > 40.7 | 7.16 | 23.5 |  | > 35.6 | > 21.5 | > 58.3
5 | CC1CCCc2c1n[nH]c2CC1CC(=O)NC(=O)C1 (stereo not drawn) |  | > 100 |  | > 100 |  | > 100 |  | > 100 |  | > 100 |  | > 100 µM |  | > 100 |  | > 100 |  | > 100 |  | > 100
6 | O=C(O)c1nn(-c2ccc(Cl)cc2)c2c1C(=O)c1ccccc1C2=O |  | > 100 |  | > 100 |  | > 100 |  | > 100 |  | > 100 |  | 28.1 µM |  | > 100 |  | 62.3 |  | > 100 |  | > 100
7 | COc1ccc(/C=C/c2cc(OC)c(OC)c(OC)c2)cc1OC |  | > 100 |  | > 100 |  | > 100 |  | > 100 |  | > 100 |  | > 100 µM |  | > 100 |  | > 100 |  | > 100 |  | > 100
8 | COc1nc(NC2OC(COC(C)=O)C(OC(C)=O)C(OC(C)=O)C2OC(C)=O)c(N=C(C)C(C)=O)c(=O)n1C (stereo not drawn) |  | > 100 |  | > 100 |  | > 100 |  | > 100 |  | > 100 |  | > 100 µM |  | > 100 |  | > 100 |  | > 100 |  | > 100
9 | Nc1ccc(C(=O)CC2(O)C(=O)Nc3ccccc32)cc1 (stereo not drawn) |  | > 100 |  | > 100 |  | > 100 |  | > 100 |  | > 100 |  | > 100 µM |  | > 100 |  | > 100 |  | > 100 |  | > 100
10 | CCOC(=O)NC(=O)c1cn(C2CCCCC2)c(=O)n(C)c1=O |  | > 100 |  | > 100 |  | > 100 |  | > 100 |  | > 100 |  | > 100 µM |  | > 100 |  | > 100 |  | > 100 |  | > 100
11 | C=CCN=C1NC(=O)C(CC(=O)Nc2cccc(Cl)c2)S1 (stereo not drawn) |  | > 100 |  | > 100 |  | > 100 |  | > 100 |  | > 100 |  | > 100 µM |  | > 100 |  | > 100 |  | > 100 |  | > 100
12 | Cc1ccccc1SC(/C=C/NNC1=NC(c2ccccc2)C(c2ccccc2)=NN1)c1ccccc1 (stereo not drawn) |  | 46.7 |  | > 100 |  | 45.3 |  | > 100 |  | > 100 |  | 75.1 µM |  | > 100 |  | 20.8 |  | > 100 |  | > 100
13 | COc1cccc(/C=C2\N=C(Cl)OC2=O)c1O |  | > 100 |  | > 100 |  | > 100 |  | > 100 |  | > 100 |  | > 100 µM |  | > 100 |  | > 93.3 |  | > 100 |  | > 100
14 | C[C@]1(c2nc3c(C(N)=O)cccc3[nH]2)CCCN1 | > 65.8 µM and 74.9 µM | > 100 | > 100 µM and 61.6 µM | > 100 | > 100 | > 100 | 99.9 µM and > 100 µM | > 100 | > 100 | > 100 | 43.4 µM and > 85.8 µM | 97.9 µM and > 100 µM | 61.5 µM and > 100 µM | > 100 | > 100 | > 100 | 54.4 µM and > 100 µM | > 100 | > 100 | > 100
15 | OCC#Cc1ccccc1C#Cc1ccc(C#Cc2ccccc2C#CCO)cc1 | 32.7 µM | > 100 | 26.4 µM | 89.3 | 55.4 | > 100 | 89.5 µM | > 100 | 34 | > 100 | 98.9 µM | > 100 µM | 45.4 µM | > 100 | 85.1 | > 100 | > 100 µM | > 100 | 50 | > 100
16 | NC(=O)c1ccc(I)c([N+](=O)[O-])c1 | > 94.5 µM | > 100 | 50.1 µM | > 100 | > 100 | > 100 | > 80.4 µM | > 100 | 30.2 | > 79.9 | 41 µM | > 72.9 µM | 58 µM | > 100 | > 100 | > 100 | > 77.3 µM | > 100 | > 100 | > 100
17 | CC(C)(C)OC(=O)NC(Cc1ccccc1)C(=S)N1CCCC1 (stereo not drawn) |  | > 100 |  | 98 |  | > 100 |  | > 100 |  | > 100 |  | > 100 µM |  | > 100 |  | > 100 |  | > 100 |  | > 100
